The target of the assay is T1, human PAH with the R408W mutation (A375 R408W cells) (Homo sapiens, UniProt P00439, R408W).
T1 construct: expressed in transfected cells
T1 sequence (P00439 1-452 R408W): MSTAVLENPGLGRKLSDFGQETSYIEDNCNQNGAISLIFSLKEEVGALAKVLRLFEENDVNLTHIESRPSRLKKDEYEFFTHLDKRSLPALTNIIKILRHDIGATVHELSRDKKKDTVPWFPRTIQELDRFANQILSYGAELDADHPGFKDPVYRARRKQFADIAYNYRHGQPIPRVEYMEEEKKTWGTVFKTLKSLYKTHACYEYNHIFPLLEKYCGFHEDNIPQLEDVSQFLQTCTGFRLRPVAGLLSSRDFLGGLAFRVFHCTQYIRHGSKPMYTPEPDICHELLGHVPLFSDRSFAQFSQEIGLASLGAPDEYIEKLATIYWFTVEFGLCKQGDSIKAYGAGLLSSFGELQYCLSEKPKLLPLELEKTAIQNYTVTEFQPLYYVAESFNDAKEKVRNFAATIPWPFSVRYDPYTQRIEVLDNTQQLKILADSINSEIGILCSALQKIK
The assay can be described thus: Cell Based Phenylalanine Flux Assay. Conditions: 24 hrs with compound, then 20 μM sepiapterin and 800 μM 13C9,15N-Phenylalanine for 4 hours, 13C-Tyrosine by LC-MS, average where tested multiple times. The gist of the method: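 Puromycin-selected A375 line, lentiviral hPAH R408W; cmpd 24 h, 37 °C, 5% CO2, 0.5% DMSO; then 20 μM sepiapterin + 800 μM 13C9,15N-Phe, 4 h; media extracted in 80% MeCN; 13C-Tyr by LC-MS; AC50 from 10-pt curves.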

Where [1] appears, read: A375 cells expressing R408W PAH.

This is an account of results in US20250171437A1 (Agios Pharmaceuticals,Inc., priority 2022, published 2025).

As a reminder, the AC50 is the concentration giving half of the maximal activity seen.

As for `O=C(c1nnc(-c2ncccc2F)o1)N1CCc2[nH]cnc2[C@@H]1c1nc2cccc(F)c2o1` [Example 867, (R)-(4-(7-fluorobenzo[d]oxazol-2-yl)-6,7-dihydro-1H-imidazo[4,5-c]pyridin-5(4H)-yl)(5-(3-fluoropyridin-2-yl)-1,3,4-oxadiazol-2-yl)methanone], the half-maximal activity concentration (AC50) (A375 R408W cells) lay within 500 to 1000 nM.

For the compound `CC(C)(O)c1nc(Cl)c(C(=O)N2CCc3[nH]cnc3[C@@H]2c2nc3c(F)cccc3o2)o1` [Example 273, (R)-(4-chloro-2-(2-hydroxypropan-2-yl)oxazol-5-yl)(4-(4-fluorobenzo[d]oxazol-2-yl)-6,7-dihydro-1H-imidazo[4,5-c]pyridin-5(4H)-yl)methanone], the AC50 (A375 R408W cells) lay within 1000 to 5000 nM.

As for `Cc1nc([C@H](C)O)oc1C(=O)N1CCc2[nH]cnc2C1c1nc2cc(F)ccc2o1` (single isomer, unassigned), the half-maximal activity concentration (AC50) under setting [1] is 1000 to 5000 nM.

Turning to `Cc1ccc(-c2nnc(C(=O)N3CCc4[nH]cnc4[C@@H]3c3nc4cc(F)ccc4o3)o2)nc1` [Example 125, (R)-(4-(5-fluorobenzo[d]oxazol-2-yl)-6,7-dihydro-1H-imidazo[4,5-c]pyridin-5(4H)-yl)(5-(5-methylpyridin-2-yl)-1,3,4-oxadiazol-2-yl)methanone], where the note is “A375 R408W cells”, the AC50 fell in the range of 1000 to 5000 nM.

For the compound `COc1cccc2nc(C3c4nc[nH]c4CCN3C(=O)c3cc(C(C)(C)C)nn3C)oc12` (stereo not drawn), the concentration at half-maximal activity (AC50) under setting [1] is 1000 to 5000 nM.

In the case of `Nc1ccc2c(C(=O)N3CCc4[nH]cnc4C3c3nc4cc(F)ccc4o3)cnn2c1` (stereo not drawn), under setting [1], the AC50 lay in the range of 1000 to 5000 nM.

Take `Cc1ccc2oc([C@@H]3c4nc[nH]c4CCN3C(=O)c3ccnn3C(F)F)nc2c1` [Example 313, (S)-(1-(difluoromethyl)-1H-pyrazol-5-yl)(4-(5-methylbenzo[d]oxazol-2-yl)-6,7-dihydro-1H-imidazo[4,5-c]pyridin-5(4H)-yl)methanone]: where the note is “A375 R408W cells”, the AC50 is ≤ 500 nM.

For the compound `Cc1ccc2oc([C@@H]3c4nc[nH]c4CCN3C(=O)c3nnc(-c4ccc(F)cn4)o3)nc2c1` [Example 99, (S)-(5-(5-fluoropyridin-2-yl)-1,3,4-oxadiazol-2-yl)(4-(5-methylbenzo[d]oxazol-2-yl)-6,7-dihydro-1H-imidazo[4,5-c]pyridin-5(4H)-yl)methanone], the half-maximal activity concentration (AC50) (A375 R408W cells) lay in the range of 500 to 1000 nM.

As for `Cn1cncc1-c1nnc(C(=O)N2CCc3[nH]cnc3C2c2nc3c(F)ccc(F)c3o2)o1` (stereo not drawn), the half-maximal activity concentration (AC50) under setting [1] lay in the range of 1000 to 5000 nM.

`CC1CN(C(=O)c2oc(C(C)(C)O)nc2C(F)F)C(c2nc3cc(F)ccc3o2)c2nc[nH]c21` (stereo not drawn): the concentration at half-maximal activity (AC50) under setting [1] was in the range of 1000 to 5000 nM.

For `Cn1cc(C(=O)N2CCc3[nH]cnc3[C@@H]2c2nc3cc(F)ccc3o2)c(C(F)F)n1` [Example 96, (R)-(3-(difluoromethyl)-1-methyl-1H-pyrazol-4-yl)(4-(5-fluorobenzo[d]oxazol-2-yl)-6,7-dihydro-1H-imidazo[4,5-c]pyridin-5(4H)-yl)methanone], under “A375 R408W cells”, the half-maximal activity concentration (AC50) was 1000 to 5000 nM.

As to `COC(=O)N1CC(C(=O)N2CCc3[nH]cnc3C2c2nc3cc(F)ccc3o2)C1` (stereo not drawn), the AC50 under setting [1] was 1000 to 5000 nM.

As for `Cc1ccc2oc([C@H]3c4nc[nH]c4CCN3C(=O)c3ncc(Cl)s3)nc2c1` [Example 2, (R)-(5-chlorothiazol-2-yl)(4-(5-methylbenzo[d]oxazol-2-yl)-6,7-dihydro-1H-imidazo[4,5-c]pyridin-5(4H)-yl)methanone], the AC50 (A375 R408W cells) was ≥ 5000 nM.

As to “(R)-(4-(5,7-difluorobenzo[d]oxazol-2-yl)-6,7-dihydro-1H-imidazo[4,5-c]pyridin-5(4H)-yl)(5-(1-methyl-1H-pyrazol-4-yl)-1,3,4-oxadiazol-2-yl)methanone [Example 610]”, the concentration at half-maximal activity (AC50) (A375 R408W cells) is 1000 to 5000 nM.

Consider `Cn1nc(C(F)F)cc1C(=O)N1CCc2[nH]cnc2[C@@H]1c1nc2ccccc2o1` [Example 732, (R)-(4-(benzo[d]oxazol-2-yl)-6,7-dihydro-1H-imidazo[4,5-c]pyridin-5(4H)-yl)(3-(difluoromethyl)-1-methyl-1H-pyrazol-5-yl)methanone], for which the concentration at half-maximal activity (AC50) (A375 R408W cells) is ≥ 5000 nM.

As to `O=C(c1oc(C2(O)CC2)nc1C(F)F)N1CCc2[nH]cnc2[C@H]1c1nc2cc(F)ccc2o1` [Example 141, (S)-(4-(difluoromethyl)-2-(1-hydroxycyclopropyl)oxazol-5-yl)(4-(5-fluorobenzo[d]oxazol-2-yl)-6,7-dihydro-1H-imidazo[4,5-c]pyridin-5(4H)-yl)methanone], the AC50 (A375 R408W cells) fell in the range of 500 to 1000 nM.

Turning to `O=C(N1CCc2[nH]cnc2C1c1nc2cc(F)ccc2o1)C(F)(F)C1(O)CCC1` (stereo not drawn), under setting [1], the half-maximal activity concentration (AC50) was 1000 to 5000 nM.

As for `Cc1nc(C(C)(C)O)oc1C(=O)N1CCc2[nH]cnc2[C@H]1c1nc2cccc(F)c2o1` [Example 268, (S)-(4-(7-fluorobenzo[d]oxazol-2-yl)-6,7-dihydro-1H-imidazo[4,5-c]pyridin-5(4H)-yl)(2-(2-hydroxypropan-2-yl)-4-methyloxazol-5-yl)methanone], the concentration at half-maximal activity (AC50) (A375 R408W cells) was 500 to 1000 nM.

In the case of `O=C(c1nnc(-c2ncccc2F)o1)N1CCc2[nH]cnc2[C@H]1c1nc2cccc(C(F)(F)F)c2o1` [Example 840, (S)-(5-(3-fluoropyridin-2-yl)-1,3,4-oxadiazol-2-yl)(4-(7-(trifluoromethyl)benzo[d]oxazol-2-yl)-6,7-dihydro-1H-imidazo[4,5-c]pyridin-5(4H)-yl)methanone], the half-maximal activity concentration (AC50) (A375 R408W cells) was ≤ 500 nM.

Turning to `CC(C)(C#N)c1nc(C(F)F)c(C(=O)N2CCc3[nH]cnc3[C@H]2c2nc3cc(F)ccc3o2)o1` [Example 159, (S)-2-(4-(difluoromethyl)-5-(4-(5-fluorobenzo[d]oxazol-2-yl)-4,5,6,7-tetrahydro-1H-imidazo[4,5-c]pyridine-5-carbonyl)oxazol-2-yl)-2-methylpropanenitrile], for the setting “A375 R408W cells”, the concentration at half-maximal activity (AC50) was ≤ 500 nM.

As to `Fc1ccc2oc(C3c4nc[nH]c4CCN3Cc3ocnc3C(F)F)nc2c1` (stereo not drawn), the half-maximal activity concentration (AC50) under setting [1] is ≥ 5000 nM.

In the case of `O=C(c1nnc(-c2ccccn2)o1)N1CCc2[nH]cnc2[C@@H]1c1nc2cc(F)cc(F)c2o1` [Example 579, (R)-(4-(5,7-difluorobenzo[d]oxazol-2-yl)-6,7-dihydro-1H-imidazo[4,5-c]pyridin-5(4H)-yl)(5-(pyridin-2-yl)-1,3,4-oxadiazol-2-yl)methanone], the half-maximal activity concentration (AC50) (A375 R408W cells) was ≤ 500 nM.

On to `Cn1ccc(-c2nc(C(F)F)c(C(=O)N3CCc4[nH]cnc4[C@H]3c3nc4ccccc4o3)o2)n1` [Example 761, (S)-(4-(benzo[d]oxazol-2-yl)-6,7-dihydro-1H-imidazo[4,5-c]pyridin-5(4H)-yl)(4-(difluoromethyl)-2-(1-methyl-1H-pyrazol-3-yl)oxazol-5-yl)methanone], for which the AC50 (A375 R408W cells) is ≤ 500 nM.

With `Cc1cc(C(=O)N2CCc3[nH]cnc3[C@@H]2c2nc3ccccc3o2)n(C)n1` [Example 780, (R)-(4-(benzo[d]oxazol-2-yl)-6,7-dihydro-1H-imidazo[4,5-c]pyridin-5(4H)-yl)(1,3-dimethyl-1H-pyrazol-5-yl)methanone], the AC50 (A375 R408W cells) was 1000 to 5000 nM.

As for `O=C(c1oc(C2(O)CCC2)nc1C(F)F)N1CCc2[nH]cnc2[C@H]1c1nc2cc(F)ccc2o1` [Example 689, (S)-(4-(difluoromethyl)-2-(1-hydroxycyclobutyl)oxazol-5-yl)(4-(5-fluorobenzo[d]oxazol-2-yl)-6,7-dihydro-1H-imidazo[4,5-c]pyridin-5(4H)-yl)methanone], under “A375 R408W cells”, the concentration at half-maximal activity (AC50) was ≤ 500 nM.

Take `O=C(c1cn(-c2ccccn2)nc1Cl)N1CCc2[nH]cnc2[C@@H]1c1nc2cc(F)ccc2o1` (single isomer, unassigned): the concentration at half-maximal activity (AC50) under setting [1] is ≥ 5000 nM.

Take `O=C(c1oc(COC(F)(F)F)nc1C(F)F)N1CCc2[nH]cnc2[C@H]1c1nc2cc(F)ccc2o1` [Example 115, (S)-(4-(difluoromethyl)-2-((trifluoromethoxy)methyl)oxazol-5-yl)(4-(5-fluorobenzo[d]oxazol-2-yl)-6,7-dihydro-1H-imidazo[4,5-c]pyridin-5(4H)-yl)methanone]: the AC50 (A375 R408W cells) was 500 to 1000 nM.

Take `O=C(c1cnn2cc(CN3CCOCC3)ccc12)N1CCc2[nH]cnc2C1c1nc2cc(F)ccc2o1` (stereo not drawn): the AC50 under setting [1] was ≥ 5000 nM.

As for `O=C(c1ocnc1C(F)(F)F)N1CCc2[nH]cnc2[C@H]1c1nc2ccc(Br)cc2o1` [Example 143, (S)-(4-(6-bromobenzo[d]oxazol-2-yl)-6,7-dihydro-1H-imidazo[4,5-c]pyridin-5(4H)-yl)(4-(trifluoromethyl)oxazol-5-yl)methanone], for the setting “A375 R408W cells”, the AC50 is ≤ 500 nM.

As to `Cn1ccc(-c2nc(C(F)F)c(C(=O)N3CCc4[nH]cnc4[C@@H]3c3nc4cc(F)ccc4o3)o2)n1` [Example 412, (R)-(4-(difluoromethyl)-2-(1-methyl-1H-pyrazol-3-yl)oxazol-5-yl)(4-(5-fluorobenzo[d]oxazol-2-yl)-6,7-dihydro-1H-imidazo[4,5-c]pyridin-5(4H)-yl)methanone], the AC50 (A375 R408W cells) is 500 to 1000 nM.

For the compound `CC(C)(O)c1ncc(C(=O)N2CCc3[nH]cnc3C2c2nc3cc(F)cc(F)c3o2)o1` (stereo not drawn), under setting [1], the AC50 is 1000 to 5000 nM.

Regarding `O=C(c1ccnn1CC(F)F)N1CCc2[nH]cnc2[C@H]1c1nc2c(F)cccc2o1` [Example 850, (S)-(1-(2,2-difluoroethyl)-1H-pyrazol-5-yl)(4-(4-fluorobenzo[d]oxazol-2-yl)-6,7-dihydro-1H-imidazo[4,5-c]pyridin-5(4H)-yl)methanone], the AC50 (A375 R408W cells) was 1000 to 5000 nM.

Turning to `O=C(c1cnco1)N1Cc2[nH]cnc2[C@H]1c1nc2ccccc2o1` (single isomer, unassigned) [Example 925], the half-maximal activity concentration (AC50) (A375 R408W cells) was ≥ 5000 nM.
